Test results: patent US5514694A, “Peptidyl ketoamides” (Georgia Tech Research Corp, priority 1993, dated 1996)
Where two headings read alike, the source gives them in different places.

Key:
Type in all cases: biochemical
[1] = target: T1, Calpain I from human erythrocytes (Homo sapiens, UniProt P07384); test: Calpain I inhibition, Suc-Leu-Tyr-AMC hydrolysis (KI); settings: read-out: KI Cal I
T1 construct: Calpain I was purified from human erythrocytes; from tissue; host or cells: human erythrocytes
T1 sequence (P07384 1-714): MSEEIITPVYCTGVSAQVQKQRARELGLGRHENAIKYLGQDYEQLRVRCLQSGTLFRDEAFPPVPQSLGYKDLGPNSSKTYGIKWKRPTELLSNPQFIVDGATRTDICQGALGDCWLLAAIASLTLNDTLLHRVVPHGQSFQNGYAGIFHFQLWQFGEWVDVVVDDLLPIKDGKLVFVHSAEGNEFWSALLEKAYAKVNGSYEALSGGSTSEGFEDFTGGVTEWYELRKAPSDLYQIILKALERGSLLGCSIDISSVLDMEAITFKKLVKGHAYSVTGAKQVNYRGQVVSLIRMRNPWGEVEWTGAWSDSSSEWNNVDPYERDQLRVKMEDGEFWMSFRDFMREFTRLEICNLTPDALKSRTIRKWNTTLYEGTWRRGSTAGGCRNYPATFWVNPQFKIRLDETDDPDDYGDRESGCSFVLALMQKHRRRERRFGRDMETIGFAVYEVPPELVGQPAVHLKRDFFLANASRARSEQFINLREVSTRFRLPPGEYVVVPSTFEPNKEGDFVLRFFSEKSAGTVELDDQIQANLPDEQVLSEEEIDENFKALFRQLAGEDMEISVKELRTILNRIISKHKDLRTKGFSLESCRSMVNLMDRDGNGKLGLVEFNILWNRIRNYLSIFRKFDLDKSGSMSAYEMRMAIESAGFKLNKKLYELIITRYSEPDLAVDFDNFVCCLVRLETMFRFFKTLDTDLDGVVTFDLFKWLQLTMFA
T1 sequence (P04632 1-268 partner): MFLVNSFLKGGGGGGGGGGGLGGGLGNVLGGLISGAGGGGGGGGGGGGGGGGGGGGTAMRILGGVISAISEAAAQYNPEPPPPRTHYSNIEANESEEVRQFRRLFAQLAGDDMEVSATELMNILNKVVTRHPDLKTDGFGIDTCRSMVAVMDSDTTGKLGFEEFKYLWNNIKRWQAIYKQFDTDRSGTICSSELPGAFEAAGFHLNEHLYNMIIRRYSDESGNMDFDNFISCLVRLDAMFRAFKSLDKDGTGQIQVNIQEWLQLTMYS
Method: (§1) HEPES, heparin, and A23187 were obtained from Calbiochem. Suc-Leu-Tyr-AMC and chromogenic substrates were obtained from Sigma. Calpain I was purified from human erythrocytes according to the method of Kitahara (Kitahara et al., J. Biochem. 95, 1759-1766) omitting the Blue-Sepharose step. Calpain II from rabbit muscle and cathepsin B were purchased from Sigma. Papain was purchased from Calbiochem.
(§2) Peptide α-ketoamides were assayed as reversible enzyme inhibitors. Various concentrations of inhibitors in Me2 SO were added to the assay mixture which contained buffer and substrate. The reaction was started by the addition of the enzyme and the hydrolysis rates were followed spectrophotometrically or fluorimetrically.
(§3) Calpain I from human erythrocytes and calpain II from rabbit were assayed using Suc-Leu-Tyr-AMC Sasaki et al., J. Biol. Chem. 259, 12489-12494 (1984); incorporated herein by reference!, and the AMC (7-amino-4-methylcoumarin) release was followed fluorimetrically (excitation at 380 nm, and emmision at 460 nm). Calpains were assayed in 25 mM Tris pH=8.0, 10 mM CaC12. Fluorescence was followed using a Gilson FL-1A fluorometer or a Perkin-Elmer 203 Fluorescence spectrometer. Cathepsin B was assayed in 20 mM sodium acetate pH=5.2, 0.5 mM dithiothreitol using Bz-Phe-Val-Arg-p-nitroanilide as substrate. Alternately, cathepsin B was assayed with Z-Arg-Arg-AFC Barrett and Kirschke, Methods Enzymol. 80, 535-561 (1981); incorporated herein by reference!, and the AFC (7-amino-4-trifluoromethylcoumarin) release was followed fluorimetrically (excitation at 400 nm and emmision at 505 nm). Papain was assayed in 100 mM KPO4, 1 mM EDTA, 2.5 mM cysteine pH=6.0 using Bz-Arg-AMC or Bz-Arg-NA Kanaoka et al., Chem. Pharm. Bull. 25, 3126-3128 (1977); incorporated herein by reference! as a substrate. The AMC (7-amino-4-methylcoumarin) release was followed fluorimetrically (excitation at 380 nm, and emmision at 460 nm). Enzymatic hydrolysis rates were measured at various substrate and inhibitor concentrations, and KI values were determined by either Lineweaver-Burk plots or Dixon plots.
(§4) A 0.1M Hepes, 0.5M NaCl, pH 7.5 buffer was utilized for human leukocyte elastase (HLE), porcine pancreatic elastase (PPE), chymotrypsin and cathepsin G. A 0.1 Hepes, 0.01 M CaCl2, pH 7.5 buffer was utilized for trypsin, plasmin, and coagulation enzymes. A 50 mM Tris.HCl, 2 mM EDTA, 5 mM cysteine, pH 7.5 was used as a buffer for papain. A 88 mM KH2 PO4, 12 mM Na2 HPO4, 1.33 mM EDTA, 2.7 mM cysteine, pH 6.0 solution was used as a buffer for cathepsin B. A 20 mM Hepes, 10 mM CaCl2, 10 mM mercatoethanol, pH 7.2 buffer was utilized for calpain I and calpain II.

calpain II from rabbit = test: Calpain II inhibition, Suc-Leu-Tyr-AMC hydrolysis (KI); settings: for Ki: read-out: KI Cal II
Method: as §1, §2, §3, §4

cathepsin B = target: T2, cathepsin B (Homo sapiens, UniProt P07858); test: Cathepsin B inhibition (KI); settings: read-out: KI Cat B
T2 construct: purchased Sigma
Method: as §1, §2, §3, §4

Row | Structure (SMILES) | Ki ([1]; Table 3, M1 CO-Leu--AA--CONH-R) | Ki (calpain II from rabbit; Table 3, M1 CO-Leu--AA--CONH-R) | Ki (cathepsin B; Table 3, M1 CO-Leu--AA--CONH-R) | Ki ([1]; Table 1, Z-Leu--AA--CONHR) | Ki (cathepsin B; Table 1, Z-Leu--AA--CONHR) | Ki (calpain II from rabbit; Table 1, Z-Leu--AA--CONHR) | inhibition of calpain II, in words (calpain II from rabbit)
1 | CC(C)CC(NC(=O)C(c1ccccc1)c1ccccc1)C(=O)NC(Cc1ccccc1)C(=O)C(=O)NCc1ccccn1 (stereo not drawn) [Ph2 CH-CO-Leu-Phe-CONH-CH2 -2-pyridyl, Ph2 CHCO-Leu-Phe-CONH--CH2 -2-Pyridyl] | 1100 nM | 360 nM | 2200 nM | – | – | – | –
2 | CCC(NC(=O)C(CC(C)C)NC(=O)C(c1ccccc1)c1ccccc1)C(=O)C(=O)NCCCN1CCOCC1 (stereo not drawn) [Ph2 CHCO-Leu-Abu-CONH--N--(CH2)3 -Morpholinyl] | 800 nM | 110 nM | 2300 nM | – | – | – | –
3 | CC(C)CC(NC(=O)C(c1ccccc1)c1ccccc1)C(=O)NC(Cc1ccccc1)C(=O)C(=O)NCCCN1CCOCC1 (stereo not drawn) [Ph2 CHCO-Leu-Phe-CONH--(CH2)3 -4-Morpholinyl] | 760 nM | 74 nM | 3800 nM | – | – | – | –
4 | CC[C@H](NC(=O)[C@H](CC(C)C)NC(=O)OCc1ccccc1)C(=O)C(=O)NCCc1ccccc1OC [Z-Leu-Abu-CONH-(CH2)2 C6 H4 (2-OCH3), Z-Leu-Abu-CONH--(CH2)2 C6 H4 (2-OCH3)] | – | – | – | 130 nM | 630 nM | – | –
5 | CCC(NC(=O)C(CC(C)C)NC(=O)OCc1ccccc1)C(=O)C(=O)NCCc1ccc(OC)cc1 (stereo not drawn) [Z-Leu-Abu-CONH-(CH2)2 C6 H4 (4-OCH3), Z-Leu-Abu-CONH--(CH2)2 C6 H4 (4-OCH3)] | – | – | – | 120 nM | 440 nM | 46 nM | –
6 | CCC(NC(=O)C(CC(C)C)NC(=O)OCc1ccccc1)C(=O)C(=O)NCCO (stereo not drawn) [Z-Leu-Abu-CONH-(CH2)2 OH, Z-Leu-Abu-CONH--(CH2)2 OH] | – | – | – | 800 nM | 4500 nM | – | –
7 | CCC(NC(=O)C(CC(C)C)NC(=O)OCc1ccccc1)C(=O)C(=O)NCCCn1ccnc1 (stereo not drawn) [Z-Leu-Abu-CONH-(CH2)3 -1-imidazolyl, Z-Leu-Abu-CONH--(CH2)3 -1-Imidazolyl] | – | – | – | 290 nM | 9900 nM | 68 nM | –
8 | CC[C@H](NC(=O)[C@H](CC(C)C)NC(=O)OCc1ccccc1)C(=O)C(=O)NCCCCCO [Z-Leu-Abu-CONH-(CH2)5 OH, Z-Leu-Abu-CONH--(CH2)5 OH] | – | – | – | – | 280 nM | 51 nM | –
9 | CCC(NC(=O)[C@H](CC(C)C)NC(=O)OCc1ccccc1)C(=O)C(=O)NCCc1cccn1C (stereo partly drawn) [Z-Leu-Abu-CONH--(CH2)2-2-(N-Methylpyrrole)] | – | – | – | – | 1200 nM | 76 nM | –
10 | CCC(NC(=O)C(CC(C)C)NC(=O)OCc1ccccc1)C(=O)C(=O)NCCCN1CCCC1=O (stereo not drawn) [Z-Leu-Abu-CONH--(CH2)3 -1-Pyrrolidinyl-2-one] | – | – | – | 1200 nM | 2000 nM | 270 nM | –
11 | CCC(NC(=O)C(CC(C)C)NC(=O)OCc1ccccc1)C(=O)C(=O)NCCCN1CCc2ccccc2C1 (stereo not drawn) [Z-Leu-Abu-CONH--(CH2)3 -2-Tetrahydroisoquinolinyl] | – | – | – | 310 nM | 8000 nM | – | –
12 | CCC(NC(=O)C(CC(C)C)NC(=O)OCc1ccccc1)C(=O)C(=O)NCC1(C)CC(O)CC(C)(C)C1 (stereo not drawn) [Z-Leu-Abu-CONH--CH2 --C6 H8 (1,3,3-(CH3)3 -5-OH)] | – | – | – | 420 nM | 890 nM | 69 nM | –
13 | CCC(NC(=O)C(CC(C)C)NC(=O)OCc1ccccc1)C(=O)C(=O)NCc1nccc2ccccc12 (stereo not drawn) [Z-Leu-Abu-CONH-CH2 -1-isoquinolinyl, Z-Leu-Abu-CONH--CH2 -1-Isoquinolinyl] | – | – | – | 250 nM | 300 nM | – | –
14 | CCC(NC(=O)C(CC(C)C)NC(=O)OCc1ccccc1)C(=O)C(=O)NCc1ccccn1 (stereo not drawn) [Z-Leu-Abu-CONH-CH2 -2-pyridyl, Z-Leu-Abu-CONH--CH2 -2-Pyridyl] | – | – | – | 640 nM | 3000 nM | 17 nM | best inhibitor of calpain II
15 | CCC(NC(=O)C(CC(C)C)NC(=O)OCc1ccccc1)C(=O)C(=O)NCC1CCCO1 (stereo not drawn) [Z-Leu-Abu-CONH-CH2 -2-tetrahydrofuryl, Z-Leu-Abu-CONH--CH2 -2-Tetrahydrofuryl] | – | – | – | 330 nM | 4500 nM | 66 nM | –
16 | CCC(NC(=O)C(CC(C)C)NC(=O)OCc1ccccc1)C(=O)C(=O)NCc1cccnc1 (stereo not drawn) [Z-Leu-Abu-CONH-CH2 -3-pyridyl, Z-Leu-Abu-CONH--CH2 -3-Pyridyl] | – | – | – | – | 1200 nM | 120 nM | substantially poorer inhibitors
17 | CCC(NC(=O)C(CC(C)C)NC(=O)OCc1ccccc1)C(=O)C(=O)NCc1ccncc1 (stereo not drawn) [Z-Leu-Abu-CONH-CH2 -4-pyridyl, Z-Leu-Abu-CONH--CH2 -4-Pyridyl] | – | – | – | 1100 nM | 6400 nM | 110 nM | substantially poorer inhibitors
18 | CC[C@H](NC(=O)[C@H](CC(C)C)NC(=O)OCc1ccccc1)C(=O)C(=O)NCc1cc(OC)cc(OC)c1 [Z-Leu-Abu-CONH-CH2 C6 H3 (3,5-(OCH3)2), Z-Leu-Abu-CONH--CH2 C6 H3 (3,5-(OCH3)2] | – | – | – | 2300 nM | 1800 nM | 22 nM | –
19 | CC(C)C[C@H](NC(=O)OCc1ccccc1)C(=O)NC(Cc1ccccc1)C(=O)C(=O)NCc1nccc2ccccc12 (stereo partly drawn) [Z-Leu-Phe-CONH-CH2 -1-isoquinolinyl, Z-Leu-Phe-CONH--CH2 -1-Isoquinolinyl] | – | – | – | 2400 nM | 9600 nM | – | –
20 | CC(C)CC(NC(=O)OCc1ccccc1)C(=O)NC(Cc1ccccc1)C(=O)C(=O)NCc1ccccn1 (stereo not drawn) [Z-Leu-Phe-CONH-CH2 -2-pyridyl, Z-Leu-Phe-CONH--CH2 -2-Pyridyl] | – | – | – | – | 270 nM | 650 nM | –
